Counter-ions that a name gives are not always drawn. Like-named read-outs stand apart in the source and are kept apart here.
How the values were obtained:
Helicobacter pylori = assay: Antibacterial activity (in vitro) against Helicobacter pylori, agar dilution MIC; type: cell-based; details: clinical isolates (18 strains), agar plate, 37°C, 8% CO2, 3-4 days; for MIC50: minimum concentration necessary for inhibiting growth by 50%; for MIC90: minimum concentration necessary for inhibiting growth by 90%
gastric acid secretion = assay: Action on gastric acid secretion of rats subjected to gastroperfusion (histamine-induced); type: in vivo; details: 3 mg/kg i.v., 5 minutes before histamine hydrochloride (1 mg/kg i.v.); urethane-anesthetized Wistar rats
Experimental: Experimental Example 2: Action on gastric acid secretion of rats subjected to gastroperfusion
The experiment was done according to the method of Ghosh et al, Br. J. Pharmacol. 13, p 54 (1958). Wistar rats were fasted for 20 hours and anesthetized with urethane (1.5 g/kg, subcutaneous). A polyethylene tube for injection and discharge for gastroperfusion was attached to the rats. Gastroperfusion was performed using physiological saline (37°C) at a speed of 7 ml/min and the perfusate was recovered at 10-min intervals. Histamine hydrochloride (1 mg/kg) was intravenously administered at 1-hr intervals to induce secretion of gastric acid. A test solution containing the test compound was intravenously administered 5 minutes before the histamine hydrochloride administration. The acidity of the gastric acid was titrated up to pH 7.0 with an automatic titrator and percent suppression of gastric acid secretion by the test compound was determined.

[1] = Helicobacter pylori, read-out: MIC50
[2] = Helicobacter pylori, read-out: MIC90

MIC50 (Helicobacter pylori; [1]) [µg/mL] | MIC90 (Helicobacter pylori; [2]) [µg/mL] | Molecule | Suppression (%) (gastric acid secretion) | other results
0.012 | 0.025 | COCCOCCOCCSc1ccnc(CSc2nc3ccccc3[nH]2)c1C [Example 21, 2-((3-methyl-4-(2-(2-(2-methoxyethoxy)ethoxy)ethylthio)-2-pyridyl)methylthio)-1H-benzimidazole·hydrochloride] | – | –
– | – | 2-((3-methyl-4-(2-methoxypolyethoxy)-2-pyridyl) methylsulfinyl)-1H-benzimidazole [Example 26] | 50 | –
0.025 | 0.05 | COCCOCCSc1ccnc(CSc2nc3ccccc3[nH]2)c1C [Example 17, 2-((3-methyl-4-(2-(2-methoxyethoxy)ethylthio)-2-pyridyl)methylthio)-1H-benzimidazole·hydrochloride] | – | –
– | – | 2-((3-methyl-4-(2-(2-methoxpolyethoxy)ethylthio)-2-pyridyl)methylsulfinyl)-1H-benzimidazole [Example 25] | 100 | –
– | – | 2-((3-methyl-4-(2-(2-methoxypolyethoxy)ethylthio)-2-pyridyl)methylthio)-1H-benzimidazole·hydrochloride [Example 22] | – | MIC50 (Helicobacter pylori): 0.025 µg/mL; MIC90 (Helicobacter pylori): 0.025 µg/mL
